Experimental data from paper PMC9403976, “Elucidating the path to Plasmodium prolyl-tRNA synthetase inhibitors that overcome halofuginone resistance” (Nature Communications, 2022).
Values joined by “and” are separate entries in the source; they are usually repeats but may differ in a detail not shown here. Equal entries are not always repeated. Where two headings read alike, the source gives them in different places.

Columns and labels:
P. falciparum Dd2-2D4 = experiment: P. falciparum asexual blood stage (ABS) growth assay, SYBR Green, 72 h, wild-type parasites; assay type: cell-based, Plasmodium falciparum; details: Plasmodium falciparum, DD2; SI Fig 16b; values on -log scale; read-out: ABS - Dd2-2D4 (converted)
PfcProRS = target: T1, PfcProRS (Plasmodium falciparum, UniProt Q8I5R7); assay type: binding; details: for dose-response signal (normalized), SI Fig 8: single replicates
T1 construct: made in house; host or cells: E. coli SoluBL-21
T1 sequence (Q8I5R7 249-746): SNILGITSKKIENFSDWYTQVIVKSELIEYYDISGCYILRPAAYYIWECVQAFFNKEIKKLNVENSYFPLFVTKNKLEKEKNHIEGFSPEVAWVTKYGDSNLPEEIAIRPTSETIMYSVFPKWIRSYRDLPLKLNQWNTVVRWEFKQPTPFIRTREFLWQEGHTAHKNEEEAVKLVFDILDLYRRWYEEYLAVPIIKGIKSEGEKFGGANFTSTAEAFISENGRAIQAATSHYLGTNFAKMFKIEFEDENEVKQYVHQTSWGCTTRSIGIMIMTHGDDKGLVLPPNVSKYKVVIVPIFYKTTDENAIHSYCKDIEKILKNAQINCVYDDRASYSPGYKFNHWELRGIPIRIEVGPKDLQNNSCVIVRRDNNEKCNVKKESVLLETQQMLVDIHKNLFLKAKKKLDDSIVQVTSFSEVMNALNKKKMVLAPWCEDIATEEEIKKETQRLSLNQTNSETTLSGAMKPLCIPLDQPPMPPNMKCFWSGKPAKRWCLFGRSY

HsProRS = HsProRS (Homo sapiens, UniProt P07814); experiment: TR-FRET ligand displacement assay with tracer MAT379 (CoraFluor-1-Halo and anti-His6 antibody formats); assay type: binding; design: made in house; host or cells: E. coli SoluBL-21; details: for TR-FRET dose-response, normalized signal (SI Fig 11): individual replicates
Chain of HsProRS (P07814 996-1512): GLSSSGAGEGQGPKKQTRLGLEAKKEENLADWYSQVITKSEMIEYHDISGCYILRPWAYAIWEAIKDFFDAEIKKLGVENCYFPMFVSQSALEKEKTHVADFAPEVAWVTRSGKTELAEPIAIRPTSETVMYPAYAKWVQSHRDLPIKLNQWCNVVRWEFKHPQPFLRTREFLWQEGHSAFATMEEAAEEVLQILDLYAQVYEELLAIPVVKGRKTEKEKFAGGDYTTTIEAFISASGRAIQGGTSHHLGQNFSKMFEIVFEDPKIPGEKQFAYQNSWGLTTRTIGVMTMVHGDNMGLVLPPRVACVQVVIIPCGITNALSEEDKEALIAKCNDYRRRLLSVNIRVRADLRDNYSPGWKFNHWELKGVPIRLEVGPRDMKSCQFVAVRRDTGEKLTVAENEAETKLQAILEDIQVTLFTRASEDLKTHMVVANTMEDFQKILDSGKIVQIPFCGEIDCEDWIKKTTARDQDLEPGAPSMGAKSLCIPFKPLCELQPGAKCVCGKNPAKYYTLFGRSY

## NC1(C(=O)Nc2nccnc2C(=O)NC2Cc3ccccc3C2)CCCCC1 [compound 17]
P. falciparum Dd2-2D4
  EC50: 5.79 µM
PfcProRS; Log[inhibitor] (M) -5.000
  dose-response signal (normalized), SI Fig 8: -2.16E-02 and 3.35E-02 and 3.85E-02
PfcProRS; Log[inhibitor] (M) -5.301
  dose-response signal (normalized), SI Fig 8: 9.18E-02 and 6.95E-02 and 1.07E-01
PfcProRS; Log[inhibitor] (M) -5.601
  dose-response signal (normalized), SI Fig 8: 1.19E-01 and 1.25E-01 and 1.05E-01
PfcProRS; Log[inhibitor] (M) -5.904
  dose-response signal (normalized), SI Fig 8: 2.12E-01 and 2.21E-01 and 2.19E-01
PfcProRS; Log[inhibitor] (M) -6.208
  dose-response signal (normalized), SI Fig 8: 4.81E-01 and 4.00E-01 and 5.13E-01
PfcProRS; Log[inhibitor] (M) -6.509
  dose-response signal (normalized), SI Fig 8: 7.01E-01 and 7.64E-01 and 7.83E-01
PfcProRS; Log[inhibitor] (M) -6.796
  dose-response signal (normalized), SI Fig 8: 9.36E-01 and 8.53E-01 and 9.43E-01
PfcProRS; Log[inhibitor] (M) -7.108
  dose-response signal (normalized), SI Fig 8: 1.01E+00 and 9.81E-01 and 1.06E+00
PfcProRS; Log[inhibitor] (M) -7.409
  dose-response signal (normalized), SI Fig 8: 1.04E+00 and 9.85E-01 and 1.08E+00
PfcProRS; Log[inhibitor] (M) -7.710
  dose-response signal (normalized), SI Fig 8: 9.36E-01 and 1.05E+00 and 9.73E-01
PfcProRS; Log[inhibitor] (M) -8.000
  dose-response signal (normalized), SI Fig 8: 9.16E-01 and 9.94E-01 and 1.09E+00
PfcProRS; Log[inhibitor] (M) -8.301
  dose-response signal (normalized), SI Fig 8: 1.01E+00 and 9.14E-01 and 9.61E-01
PfcProRS; Log[inhibitor] (M) -8.602
  dose-response signal (normalized), SI Fig 8: 9.67E-01 and 1.05E+00 and 9.29E-01
PfcProRS; Log[inhibitor] (M) -9.000
  dose-response signal (normalized), SI Fig 8: 9.54E-01 and 9.96E-01 and 9.84E-01
PfcProRS; Log[inhibitor] (M) -9.301
  dose-response signal (normalized), SI Fig 8: 9.59E-01 and 9.29E-01 and 9.60E-01
PfcProRS; SI Fig 16a, values on -log scale
  PfcProRS -- best Kd: 6.883
HsProRS; HsProRS (KD [nM]) mean, no added proline/ATP (-)
  Kd: 4430 nM
HsProRS; HsProRS - best Kd, SI Fig 16a, values on -log scale
  Kd: 25.5 nM
HsProRS; Log[inhibitor] (M) -5.000
  normalized TR-FRET ligand displacement signal, dose-response replicates (SI Fig 6): 2.29E-01 and 2.88E-01 and 2.34E-01
  TR-FRET dose-response, normalized signal (SI Fig 11): 3.10E-01 and 3.50E-01 and 2.83E-01
HsProRS; Log[inhibitor] (M) -5.301
  normalized TR-FRET ligand displacement signal, dose-response replicates (SI Fig 6): 4.79E-01 and 4.33E-01 and 5.59E-01
  TR-FRET dose-response, normalized signal (SI Fig 11): 5.37E-01 (2×) and 4.61E-01
HsProRS; Log[inhibitor] (M) -5.601
  normalized TR-FRET ligand displacement signal, dose-response replicates (SI Fig 6): 7.03E-01 and 7.28E-01 and 7.31E-01
  TR-FRET dose-response, normalized signal (SI Fig 11): 6.81E-01 and 6.32E-01 and 7.28E-01
HsProRS; Log[inhibitor] (M) -5.904
  normalized TR-FRET ligand displacement signal, dose-response replicates (SI Fig 6): 9.55E-01 and 9.39E-01 and 8.52E-01
  TR-FRET dose-response, normalized signal (SI Fig 11): 7.93E-01 and 8.32E-01 and 8.75E-01
HsProRS; Log[inhibitor] (M) -6.208
  normalized TR-FRET ligand displacement signal, dose-response replicates (SI Fig 6): 9.44E-01 and 9.23E-01 and 8.86E-01
  TR-FRET dose-response, normalized signal (SI Fig 11): 9.35E-01 and 8.64E-01 and 9.27E-01
HsProRS; Log[inhibitor] (M) -6.509
  normalized TR-FRET ligand displacement signal, dose-response replicates (SI Fig 6): 9.47E-01 and 9.84E-01 and 9.68E-01
  TR-FRET dose-response, normalized signal (SI Fig 11): 8.93E-01 and 9.27E-01 and 9.36E-01
HsProRS; Log[inhibitor] (M) -6.796
  normalized TR-FRET ligand displacement signal, dose-response replicates (SI Fig 6): 9.18E-01 and 9.88E-01 and 9.43E-01
  TR-FRET dose-response, normalized signal (SI Fig 11): 9.97E-01 and 9.65E-01 and 9.84E-01
HsProRS; Log[inhibitor] (M) -7.108
  normalized TR-FRET ligand displacement signal, dose-response replicates (SI Fig 6): 9.90E-01 and 9.75E-01 and 9.07E-01
  TR-FRET dose-response, normalized signal (SI Fig 11): 9.67E-01 and 9.70E-01 and 9.86E-01
HsProRS; Log[inhibitor] (M) -7.409
  normalized TR-FRET ligand displacement signal, dose-response replicates (SI Fig 6): 1.03E+00 and 1.00E+00 and 1.02E+00
  TR-FRET dose-response, normalized signal (SI Fig 11): 9.20E-01 and 9.49E-01 and 9.94E-01
HsProRS; Log[inhibitor] (M) -7.710
  normalized TR-FRET ligand displacement signal, dose-response replicates (SI Fig 6): 1.02E+00 and 9.03E-01 and 1.03E+00
  TR-FRET dose-response, normalized signal (SI Fig 11): 9.99E-01 and 9.64E-01 and 1.05E+00
HsProRS; Log[inhibitor] (M) -8.000
  normalized TR-FRET ligand displacement signal, dose-response replicates (SI Fig 6): 1.01E+00 and 9.27E-01 and 9.75E-01
  TR-FRET dose-response, normalized signal (SI Fig 11): 1.01E+00 and 9.57E-01 and 9.53E-01
HsProRS; Log[inhibitor] (M) -8.301
  normalized TR-FRET ligand displacement signal, dose-response replicates (SI Fig 6): 1.01E+00 and 1.00E+00 and 1.05E+00
  TR-FRET dose-response, normalized signal (SI Fig 11): 9.70E-01 and 9.81E-01 and 1.01E+00
HsProRS; Log[inhibitor] (M) -8.602
  normalized TR-FRET ligand displacement signal, dose-response replicates (SI Fig 6): 9.94E-01 and 1.05E+00 and 1.03E+00
  TR-FRET dose-response, normalized signal (SI Fig 11): 9.48E-01 and 9.63E-01 and 9.29E-01
HsProRS; Log[inhibitor] (M) -9.000
  normalized TR-FRET ligand displacement signal, dose-response replicates (SI Fig 6): 9.41E-01 and 1.01E+00 and 9.67E-01
  TR-FRET dose-response, normalized signal (SI Fig 11): 9.46E-01 and 9.80E-01 and 9.64E-01
HsProRS; Log[inhibitor] (M) -9.301
  normalized TR-FRET ligand displacement signal, dose-response replicates (SI Fig 6): 1.02E+00 and 9.62E-01 and 8.95E-01
  TR-FRET dose-response, normalized signal (SI Fig 11): 9.77E-01 (2×) and 9.15E-01
